# Assay results from PMC9167584, “Calotropin and corotoxigenin 3-O-glucopyranoside from the desert milkweed Asclepias subulata inhibit the Na^+/K^+-ATPase activity” (PeerJ, 2022).
# Several values for one entry are separate records, joined by “and”; a condition that tells them apart may be missing. Equal entries are not always repeated.
# Experiments:
# [1] = tested on: A549, PC-3, and LS-180; design: method as in Rascón-Valenzuela et al. (2015); details: human cancer cell lines A549, PC-3, LS-180; ref Rascón-Valenzuela et al. (2015); cited from earlier work
# [2] = molecular target: brain porcine Na^+/K^+-ATPase; assay: In vitro inhibitory assay of Na+/K+-ATPase (colorimetric Pi release); assay type: biochemical; details: brain porcine enzyme; mean ± SD; triplicate; read-out: Inhibition of Na^+/K^+-ATPase IC50
# Experimental: We used the inhibitory assay method described by [Mugpasao et al. (2014)]. The enzymatic activity of Na^+/K^+-ATPase was determined by colorimetric quantification of orthophosphate (Pi) released during the ATP hydrolysis according to the method of [Taussky, Shorr & Kurzmann (1953)]. The inhibition assays were done using commercial brain porcine Na^+/K^+-ATPase. Protein concentration was determined according to the Bradford method ([Bradford, 1976]) using bovine serum albumin as standard. As inhibitors, we used cardenolides ouabain, calotropin, and C3OG. The cardenolide ouabain was used as a reference molecule. The reaction was done in a 96-wells plate, adding 10 μL of Na^+/K^+-ATPase solution (0.5 U/mL) with 4 μL of NaCl/KCl solution (35 mM of KCl and 1.65 M of NaCl), 70 μL of Tris-HCl buffer (30 mM Tris-HCl, 0.5 mM of EDTA and 7.8 mM of MgCl2) at 37 °C and 30 min with 6 μL either dimethyl sulfoxide (DMSO) or test compounds on each well. The range concentrations of inhibitors were 100.0–0.001 μM of ouabain and 1000.0–0.01 μM of calotropin and C3OG. Then, 20 μL of ATP solution 22 mM was added to each well, and the reaction solution was incubated at 37 °C for 15 min.
# Next, we added 30 μL of trichloroacetic acid (TCA) at 30% (w/v) to each well to block the reaction. The 96-wells plate was mixed slightly and centrifuged at 3,000 rpm for 15 min. Finally, 50 μL of the supernatant was transferred to another 96-well plate and were coated with 100 μL of Taussky-Shorr solution. The absorbance was read at 660 nm in a microplate reader ThermoScientific Multiskan (Thermo Fisher, Vantaa, Finland) after incubation of 5 min at room temperature, protected from the light. The color intensity was proportional to the release of orthophosphate, indicating ATP hydrolysis and the Na^+/K^+-ATPase activity. The inhibition of the enzymatic activity by cardenolides was managed in the percentage of Na^+/K^+-ATPase activity compared with control. The data of inhibitory Na^+/K^+-ATPase activity were expressed in IC50 and standard deviation. All experiments were performed in triplicate. […]
# [3] = tested on: porcine brain Na^+/K^+-ATPase; assay: Kinetic analysis of Na+/K+-ATPase inhibition (Michaelis-Menten, Lineweaver-Burk); assay type: biochemical; details: for Type of inhibition: Lineweaver-Burk plot, 0.1 and 1.0 μM inhibitor; for Ki: uncompetitive inhibition model, ATP as substrate
# Experimental: The Michaelis-Menten kinetic parameters Km and Vmax of porcine brain Na^+/K^+-ATPase were determined from the initial velocities by modifying the ATP concentrations from 0.125 to 4.0 mM using the enzymatic standard conditions previously mentioned. Initial rates were recorded for 15 min in intervals of 3 min. The measurements were done in the absence or presence of inhibitors. The concentration of Na^+, K^+, and Mg^2+ ions remained constant. The initial velocity when the A. subulata cardenolides were tested was recorded for 15 min. Kinetic analyses were carried out in the presence or absence of two different concentrations of cardenolides (0.1 and 1.0 μM) to determine the nature of the inhibition of the Na^+/K^+-ATPase. All experiments were performed in triplicate. The experimental data were fitted to the Michaelis-Menten equation by non-linear regression analysis. The type of inhibition was obtained by Lineweaver-Burk double reciprocal plots using GraphPad Prism software version 8 (GraphPad Software Inc., San Diego, CA, USA).
# [4] = molecular target: porcine cerebral cortex Na^+/K^+-ATPase; design: method as in Agrawal et al. (2021); details: porcine cerebral cortex enzyme; ref Agrawal et al. (2021); cited from earlier work
# [5] = molecular target: Na^+/K^+-ATPase; design: method as in Ren et al., 2020; details: reference inhibitor; ref Ren et al., 2020; cited from earlier work
# [6] = in presence of 0.1 μM inhibitor
# [7] = in presence of 1.0 μM inhibitor
SMILES,IC50 (cytotoxicity) [1],IC50 [2] [µM],Type of inhibition [3],"Vmax [3, 6] [μmolPi/mg/min]","Vmax [3, 7] [μmolPi/mg/min]",Ki [3],IC50 [4] [µM],IC50 [5] [µM]
"C[C@]12CCC3C(CCC4C[C@@H](O[C@@H]5O[C@H](CO)[C@@H](O)[C@H](O)[C@H]5O)CC[C@@]43C=O)[C@@]1(O)CC[C@@H]2C1=CC(=O)OC1 (stereo partly shown) [C3OG, corotoxigenin 3-O-glucopyranoside]",micromolar order,0.87 ± 0.2,Uncompetitive,1.47 ± 0.08,0.80 ± 0.06,0.5 µM and 0.52 µM,–,–
"C[C@@H]1C[C@H](O)[C@]2(O)O[C@@H]3C[C@@]4(C=O)[C@@H](CC[C@@H]5[C@@H]4CC[C@]4(C)[C@@H](C6=CC(=O)OC6)CC[C@]54O)C[C@H]3O[C@@H]2O1 [Calotropin, calotropin]",nanomolar order,0.27 ± 0.06,Uncompetitive,2.17 ± 0.10,0.77 ± 0.10,0.2 ± 0.03 µM,0.27,–
"C[C@@H]1O[C@@H](O[C@H]2C[C@@H](O)[C@]3(CO)[C@H]4[C@H](O)C[C@]5(C)[C@@H](C6=CC(=O)OC6)CC[C@]5(O)[C@@H]4CC[C@]3(O)C2)[C@H](O)[C@H](O)[C@H]1O [Ouabain, ouabain octahydrate, reference compound]",–,0.12 ± 0.02,uncompetitive,2.11 ± 0.14,0.66 ± 0.04,0.16 µM,–,–
C[C@H]1O[C@@H](O[C@H]2[C@@H](O)C[C@H](O[C@H]3[C@@H](O)C[C@H](O[C@H]4CC[C@@]5(C)[C@H](CC[C@@H]6[C@@H]5C[C@@H](O)[C@]5(C)[C@@H](C7=CC(=O)OC7)CC[C@]65O)C4)O[C@@H]3C)O[C@@H]2C)C[C@H](O)[C@@H]1O [digoxin],–,–,–,–,–,–,–,0.23
